Assay results published in patent US11203601B2, “Tricyclic compounds as glycogen synthase kinase 3 (GSK3) inhibitors and uses thereof” (The Broad Institute, Inc., priority 2017, dated 2021).
In brackets after ≈: the same amount, converted by molar mass. Like-named read-outs stand apart in the source and are kept apart here.

How the values were obtained:
GSK3β [1] = target: T1, GSK3β (Homo sapiens (Human), UniProt P49841); test: Mobility shift microfluidics assay; assay type: biochemical; conditions: 4.3 μM ATP, 60 minutes at room temperature
T1 sequence (P49841 whole entry): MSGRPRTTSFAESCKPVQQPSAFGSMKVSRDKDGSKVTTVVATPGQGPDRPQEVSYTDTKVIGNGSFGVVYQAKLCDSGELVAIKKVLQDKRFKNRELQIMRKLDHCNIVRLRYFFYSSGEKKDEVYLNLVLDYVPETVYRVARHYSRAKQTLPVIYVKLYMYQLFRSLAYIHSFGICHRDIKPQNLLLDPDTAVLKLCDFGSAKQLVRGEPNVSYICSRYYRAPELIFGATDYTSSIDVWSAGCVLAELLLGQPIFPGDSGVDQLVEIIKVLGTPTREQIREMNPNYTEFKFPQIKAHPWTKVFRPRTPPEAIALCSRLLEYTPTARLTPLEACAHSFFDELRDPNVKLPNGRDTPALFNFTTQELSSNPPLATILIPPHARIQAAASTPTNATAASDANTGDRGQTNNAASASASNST
Experimental: (§6) Reactions were terminated by the addition of 10 mM ethylenediaminetetraacetic acid (EDTA). Substrate and product were separated electrophoretically, and fluorescence intensity of the substrate and product was determined by Labchip EZ Reader II (Caliper Life Sciences). The kinase activity was measured as percent conversion. The reactions were performed in duplicate for each sample. […] The results were analyzed by Genedata Assay Analyzer. The percent inhibition was plotted against the compound concentration, and the IC50 value was determined from the logistic dose-response curve fitting. Values are the average of at least three experiments.

GSK3α [2] = target: T2, GSK3α (Homo sapiens (Human), UniProt P49840); test: Mobility shift microfluidics assay; assay type: biochemical
T2 sequence (P49840 whole entry): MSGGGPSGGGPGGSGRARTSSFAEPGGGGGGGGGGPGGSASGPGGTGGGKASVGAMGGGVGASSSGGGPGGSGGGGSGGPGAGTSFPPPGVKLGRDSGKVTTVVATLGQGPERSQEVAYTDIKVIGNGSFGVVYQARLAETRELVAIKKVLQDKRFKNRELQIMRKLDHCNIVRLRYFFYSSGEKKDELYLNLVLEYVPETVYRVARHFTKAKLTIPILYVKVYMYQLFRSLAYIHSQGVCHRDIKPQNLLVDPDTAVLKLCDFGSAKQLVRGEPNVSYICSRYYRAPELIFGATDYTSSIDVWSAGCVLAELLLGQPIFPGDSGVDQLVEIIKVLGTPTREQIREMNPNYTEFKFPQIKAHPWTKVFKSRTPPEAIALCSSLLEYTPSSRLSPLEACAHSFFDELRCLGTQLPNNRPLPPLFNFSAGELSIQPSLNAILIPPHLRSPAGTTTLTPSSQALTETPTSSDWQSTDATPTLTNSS
Experimental: as §6

Plasma stability, human = assay type: in vitro ADME; conditions: human plasma, 5 μM, 5 hours at 37° C.
Experimental: (§1) Stability of compound in plasma was tested in duplicate by incubating compound at 5 μM for 5 hours at 37° C. Compound level at 5 hours was compared to level at 0 hours, and percent remaining was calculated. Binding to plasma proteins was tested in duplicate by incubating compound in plasma at 5 μM for 5 hours at 37° C. in the Rapid Equilibrium Dialysis (RED) Device. Compound level in plasma compartment was compared to compound level in buffer compartment to calculate percent bound. Order by selecting Plasma Stability and Plasma Protein Binding in Prometheus, checking boxes for desired species.
(§2) Available species: human, mouse (CD-1), and rat (Sprague-Dawley). Compound requirements: 15 μL of a 10 mM DMSO solution. Incubation time: 5 hours at 37° C. Test Concentration: 5 μM.

Solubility in PBS = conditions: 23 °C, aqueous buffer, thermodynamic from solid
Experimental: Solubility of compound was tested in triplicate by diluting a 10 mM DMSO solution with PBS. Maximum concentration of compound in solution was 100 μM.
Solubility of compound was tested in triplicate by drying down a 10 mM DMSO solution and then attempting to reconstitute in 100% PBS. Maximum concentration of compound in solution was 500 μM.
Compound requirements (1% DMSO in PBS): 30 μL of a 10 mM DMSO solution. Compound requirements (PBS-only): 60 μL of a 10 mM DMSO solution. Equilibration time: 18 hours at room temperature.

Plasma stability, mouse = assay type: in vitro ADME, mouse (CD-1)
Experimental: as §1, §2

[3] = Plasma protein binding (RED), mouse; assay type: in vitro ADME, mouse (CD-1); conditions: CD-1, 5 hours at 37° C., read-out: Plasma Protein Binding (Mouse, % bound) (converted)
[4] = Liver microsomal stability, mouse; assay type: in vitro ADME, mouse (CD-1); conditions: 1 μM, 60 minutes at 37° C.
Experimental: (§3) Stability of compound in liver microsomes was tested in duplicate by incubating compound at 1 μM for 60 minutes at 37° C. Compound level at 60 minutes was compared to level at 0 minutes, and percent remaining was calculated. Order by selecting Microsomal Stability in Prometheus, checking boxes for desired species.
(§4) Available species: human, mouse (CD-1), and rat (Sprague-Dawley). Compound requirements: 5 μL of a 10 mM DMSO solution. Incubation time: 60 minutes at 37° C. Test Concentration: 1 μM.
(§5) Microsomes with NADPH without compound-matrix interference. Microsomes plus compound without NADPH-non-enzymatic instability.

[5] = Liver microsomal stability, human; assay type: in vitro ADME; conditions: 1 μM, 60 minutes at 37° C.
Experimental: as §3, §4, §5

[6] = Plasma protein binding (RED), human; assay type: in vitro ADME; conditions: 5 hours at 37° C., read-out: Plasma Protein Binding (Human, % bound) (converted)
Experimental: as §1, §2

GSK3β [7] = target: T1, GSK3β; test: GSK3 beta biochemical assay (TR-FRET)
Experimental: (§7) 1 nM enzyme, 200 nM biotinylated peptide
(§8) 4 μM ATP (GSK3 alpha) or 2 μM ATP (GSK3 beta)
(§9) The reaction volume is 10 μL, and the final percent DMSO is 1%. The total volume of DMSO is therefore 100 nL. It is critical that the percentage of DMSO be controlled and consistent across the plate. […] The High control is with all assay components but no inhibitor, the low control is with all assay components but no enzyme.
(§10) Make 2× detection reagents in Invitrogen TR-FRET detection buffer for final 20 nM Strepavidin-d2, 1 nM Tb^2+-pSer641 antibody (using 20 μl as final volume). 2× detection=40 nM Strepavidin-d2, 2 nM Tb^2+-pSer641 antibody.
(§11) XLFit is used for results which are archived into a database. The data is normalized as a percentage of uninhibited control minus max inhibited controls.

GSK3α [8] = target: T2, GSK3α; test: GSK3 alpha biochemical assay (TR-FRET)
Experimental: as §7, §8, §9, §10, §11

MDR1 = test: MDR1/MDCK assay (Example 4); assay type: in vitro ADME; conditions: dog, MDCK-MDR1; for Papp A→B at 120 min, 5 μM / Papp B→A at 120 min, 5 μM: pH 7.4, 120 minutes; for efflux ratio at 120 min, 5 μM: (Papp B to A)/(Papp A to B)
Experimental: The MDR1/MDCK assay is run at Absorption Systems. This assay is used to determine the blood-brain barrier (BBB) penetration potential of a test compound using MDR1-MDCK cell monolayers. Catalog number EA203.
Substrate • Test compound at 5 μM in HBSSg with maximum DMSO concentration not greater than 1%. Assay System • Confluent monolayers of MDR1-MDCK cells, 7 to 11 days old. Assay Conditions • Receiver well with 1% BSA in modified Hanks buffer (HBSSg) • Apical and basolateral side at pH 7.4 • Dose two monolayers in each direction (N=2) • Dose apical side for (A to B) assessment • Dose basolateral side for (B to A) assessment • Sample both apical and basolateral sides at 120 minutes • Determine the concentrations of test compound using a generic LC-MS/MS method with a minimum 4 point calibration curve. Assay QC • The quality of the cell monolayer batch is verified using control compounds before monolayers are released for use • The quality of each monolayer used in the assay is verified by a TEER measurement and by calculating the Papp for a control compound. Solubility (SOL) 1% DMSO in PBS

[9] = mouse plasma, 5 μM, 5 hours at 37° C.
[10] = GSK3β TR-FRET BIOCHEMICAL (TR-FRET) GMean IC50, 2 μM ATP (Km), 100 min at room temperature
[11] = GSK3α TR-FRET BIOCHEMICAL (TR-FRET) GMean IC50, 4 μM ATP (Km), 100 min at room temperature

IC50 (GSK3β [7]) [nM] | IC50 (GSK3α [8]) [nM] | SMILES | IC50 (GSK3β [1]) [nM] | IC50 (GSK3α [2]) [nM] | further results
 |  | CC1(C)CC(=O)C2=C(C1)Nc1ncsc1[C@@]2(C)c1ccccc1 | 28600 | 18500 | 
 |  | CC1(C)CC(=O)C2=C(C1)Nc1ncsc1[C@]2(C)c1cccc(F)c1 | 455 | 203 | 
 |  | CC1(C)CC(=O)C2=C(C1)Nc1ncsc1[C@@]2(C)c1cccc(F)c1 | 12500 | 6230 | 
 |  | CC[C@]1(c2ccccc2)C2=C(CC(C)(C)CC2=O)Nc2ncsc21 | > 30000 | > 30000 | 
 |  | CC[C@]1(c2cccc(OC)c2)C2=C(CC(C)(C)CC2=O)Nc2ncsc21 | 10500 | 10600 | 
 |  | CC[C@@]1(c2ccccc2)C2=C(CC3(CCCCC3)CC2=O)Nc2ncsc21 | 447 | 155 | 
 |  | CC[C@]1(c2ccccc2)C2=C(CC3(CCCCC3)CC2=O)Nc2ncsc21 | 1890 | 3660 | 
 |  | CC[C@@]1(c2cccc(Cl)c2)C2=C(CC(C)(C)CC2=O)Nc2ncsc21 |  |  | Plasma Stability (Human, % remaining) (Plasma stability, human): 98.7%; solubility thermodynamic at 18 h (Solubility in PBS): 37 µM (≈ 13.8 µg/mL); Plasma Stability (Mouse, % remaining) (Plasma stability, mouse; [9]): 98.1%; fraction unbound at 5 h, 5 μM [3]: 0.023; Mouse Liver Microsomal Stability, % remaining [4]: 11.1%; Human Liver Microsomal Stability, % remaining [5]: 0.0%; fraction unbound at 5 h, 5 μM [6]: 0.018
 |  | CC[C@@]1(c2cccc(OC)c2)C2=C(CC(C)(C)CC2=O)Nc2ncsc21 |  |  | Plasma Stability (Human, % remaining) (Plasma stability, human): 98.3%; solubility thermodynamic at 18 h (Solubility in PBS): 153 µM (≈ 56.4 µg/mL); Plasma Stability (Mouse, % remaining) (Plasma stability, mouse; [9]): 97.0%; fraction unbound at 5 h, 5 μM [3]: 0.077; Mouse Liver Microsomal Stability, % remaining [4]: 10.8%; Human Liver Microsomal Stability, % remaining [5]: 1.6%; fraction unbound at 5 h, 5 μM [6]: 0.025
 |  | CC[C@]1(c2cccc(F)c2)C2=C(CC(C)(C)CC2=O)Nc2ncsc21 (single isomer, unassigned) | > 30000 | > 30000 | 
 |  | CC[C@@]1(c2cccc(Cl)c2)C2=C(CC(C)(C)CC2=O)Nc2ncsc21 (single isomer, unassigned) | 1180 | 293 | 
 |  | CC[C@]1(c2cccc(Cl)c2)C2=C(CC(C)(C)CC2=O)Nc2ncsc21 (single isomer, unassigned) | > 30000 | > 30000 | 
 |  | CC[C@@]1(c2cccc(OC)c2)C2=C(CC(C)(C)CC2=O)Nc2ncsc21 (single isomer, unassigned) | 110 | 24 | 
 |  | CCC1(c2ccccc2)C2=C(CC(C)(C)CC2=O)Nc2ncsc21 (single isomer, unassigned) [Compound 1-E1, 9-Ethyl-6,6-dimethyl-9-phenyl-5,6,7,9-tetrahydrothiazolo[4,5-b]quinolin-8(4H)-one] |  |  | IC50 (GSK3β [7]; [10]): > 5000 nM; IC50 (GSK3α [8]; [11]): > 5000 nM
353 | 130 | CCC1(c2ccccc2)C2=C(Nc3ncsc31)C(C)CC(C)C2=O (stereo not drawn) [Compound 2] |  |  | 
951 | 254 | CCC1(c2ccccc2)C2=C(CCC(C)(C)C2=O)Nc2ncsc21 (stereo not drawn) [Compound 3] |  |  | 
627 | 174 | CCC1(c2ccccc2)C2=C(Nc3ncsc31)C(C)(C)CCC2=O (stereo not drawn) [Compound 4] |  |  | 
366 | 80 | CCC1(c2ccccc2)C2=C(CC3(CCCC3)CC2=O)Nc2ncsc21 (stereo not drawn) [Compound 5] |  |  | 
684 | 194 | CCC1(c2ccccc2)C2=C(CC(C)CC2=O)Nc2ncsc21 (stereo not drawn) [Compound 6] |  |  | 
592 | 171 | CCC1CC(=O)C2=C(C1)Nc1ncsc1C2(CC)c1ccccc1 (stereo not drawn) [Compound 7] |  |  | 
927 | 365 | CCC1(c2ccccc2)C2=C(CC(C(C)C)CC2=O)Nc2ncsc21 (stereo not drawn) [Compound 8] |  |  | 
418 | 184 | CCCC1CC(=O)C2=C(C1)Nc1ncsc1C2(CC)c1ccccc1 (stereo not drawn) [Compound 9] |  |  | 

IC50 (GSK3β [7]) [nM] | IC50 (GSK3α [8]) [nM] | SMILES | IC50 (GSK3β [1]) [nM] | IC50 (GSK3α [2]) [nM] | further results
644 | 189 | CCC1(c2ccccc2)C2=C(CC(CC(C)C)CC2=O)Nc2ncsc21 (stereo not drawn) [Compound 10] |  |  | 
> 1670 | 419 | CCC1(c2ccccc2)C2=C(CCCC2=O)Nc2ncsc21 (stereo not drawn) [Compound 11] |  |  | 
619 | 187 | CCC1(c2ccc(C)cc2)C2=C(CC(C)(C)CC2=O)Nc2ncsc21 (stereo not drawn) [Compound 13] |  |  | 
234 | 41 | CCC1(c2cccc(Br)c2)C2=C(CC(C)(C)CC2=O)Nc2ncsc21 (stereo not drawn) [Compound 14] |  |  | 
> 5000 | > 5000 | CCC1(c2ccccc2)C2=C(CC(C)(C)CC2=O)Nc2nc(C)sc21 (stereo not drawn) [Compound 15] |  |  | 
> 5000 | > 5000 | CC1(C)CC(=O)C2=C(C1)Nc1ncsc1C21CCCc2ccccc21 (stereo not drawn) [Compound 16] |  |  | 
> 5000 | > 5000 | CC1(C)CC(=O)C2=C(C1)Nc1ncsc1C21CCCCc2ccccc21 (stereo not drawn) [Compound 17] |  |  | 
 |  | [2H]c1nc2c(s1)C(CC)(c1ccccc1)C1=C(CC(C)(C)CC1=O)N2 (stereo not drawn) [Compound 18] |  |  | IC50 (GSK3β [7]; [10]): 500 nM; IC50 (GSK3α [8]; [11]): 118 nM
4350 | 1990 | CCC1(c2ccccc2)C2=C(CC(C)(C)CC2=O)Nc2nc(Cl)sc21 (stereo not drawn) [Compound 19] |  |  | 
 |  | CC1(C)CC(=O)C2=C(C1)Nc1ncsc1[C@]2(C)c1ccccc1 [drawing 153] | 384 | 238 | 
 |  | CC[C@@]1(c2ccccc2)C2=C(CC(C)(C)CC2=O)Nc2ncsc21 [drawing 157] | 65 | 14 | 
 |  | CC[C@@]1(c2cccc(F)c2)C2=C(CC(C)(C)CC2=O)Nc2ncsc21 [drawing 159] | 2270 | 599 | 
 |  | CC[C@@]1(c2cccc(C)c2)C2=C(CC(C)(C)CC2=O)Nc2ncsc21 [drawing 163] | 245 | 69 | 
 |  | CC[C@@]1(c2ccccc2)C2=C(CC(C)(C)CC2=O)Nc2n[nH]cc21 [drawing 170] | 507 |  | 
 |  | CC1(C)CC(=O)C2=C(C1)Nc1ncsc1[C@]2(C)c1ccccc1 [drawing 172] |  |  | Plasma Stability (Human, % remaining) (Plasma stability, human): 100%; solubility thermodynamic at 18 h (Solubility in PBS): 34 µM (≈ 11 µg/mL); Plasma Stability (Mouse, % remaining) (Plasma stability, mouse; [9]): 100%; fraction unbound at 5 h, 5 μM [3]: 0.004; Mouse Liver Microsomal Stability, % remaining [4]: 0.7%; Human Liver Microsomal Stability, % remaining [5]: 17.7%; fraction unbound at 5 h, 5 μM [6]: 0.005
 |  | CC1(C)CC(=O)C2=C(C1)Nc1n[nH]cc1[C@]2(C)c1ccccc1 [drawing 178] |  |  | Plasma Stability (Human, % remaining) (Plasma stability, human): 100%; solubility thermodynamic at 18 h (Solubility in PBS): > 500 µM; Plasma Stability (Mouse, % remaining) (Plasma stability, mouse): 96.6%; Mouse Liver Microsomal Stability, % remaining [4]: 100%; Human Liver Microsomal Stability, % remaining [5]: 100%
 |  | CC1(C)CC(=O)C2=C(C1)Nc1ncsc1[C@]2(C)c1ccccc1 [drawing 181] |  |  | Papp A→B at 120 min, 5 μM (MDR1): 28.4 ×10⁻⁶ cm/s; Papp B→A at 120 min, 5 μM (MDR1): 62.8 ×10⁻⁶ cm/s; efflux ratio at 120 min, 5 μM (MDR1): 2.2
 |  | CC[C@@]1(c2ccccc2)C2=C(CC(C)(C)CC2=O)Nc2ncsc21 [drawing 182] |  |  | Papp A→B at 120 min, 5 μM (MDR1): 24.2 ×10⁻⁶ cm/s; Papp B→A at 120 min, 5 μM (MDR1): 62.1 ×10⁻⁶ cm/s; efflux ratio at 120 min, 5 μM (MDR1): 2.6
 |  | CC1(C)CC(=O)C2=C(C1)Nc1n[nH]cc1[C@]2(C)c1ccccc1 [drawing 183] |  |  | Papp A→B at 120 min, 5 μM (MDR1): 1.82 ×10⁻⁶ cm/s; Papp B→A at 120 min, 5 μM (MDR1): 66.1 ×10⁻⁶ cm/s
 |  | CC[C@@]1(c2ccccc2)C2=C(CC(C)(C)CC2=O)Nc2n[nH]cc21 [drawing 184] |  |  | Papp A→B at 120 min, 5 μM (MDR1): 1.26 ×10⁻⁶ cm/s; Papp B→A at 120 min, 5 μM (MDR1): 57.7 ×10⁻⁶ cm/s
 |  | Cc1c[nH]c(-c2cnc(NCCNc3ccc(C#N)cn3)nc2-c2ccc(Cl)cc2Cl)n1 [drawing 185] |  |  | Papp A→B at 120 min, 5 μM (MDR1): 6.5 ×10⁻⁶ cm/s; Papp B→A at 120 min, 5 μM (MDR1): 64.2 ×10⁻⁶ cm/s
